Drawing on patent US20080312271A1, “AZABENZIMIDAZOLYL COMPOUNDS” (Pfizer Inc., priority 2006, published 2008), this text covers EC50 for 19 molecules.

In the first assay the target is T1, mGluR2 receptor (metabotropic glutamate receptor 2) (Homo sapiens, UniProt Q14416).
T1 construct: expressed in transfected cells
T1 sequence (Q14416 19-872, species assumed): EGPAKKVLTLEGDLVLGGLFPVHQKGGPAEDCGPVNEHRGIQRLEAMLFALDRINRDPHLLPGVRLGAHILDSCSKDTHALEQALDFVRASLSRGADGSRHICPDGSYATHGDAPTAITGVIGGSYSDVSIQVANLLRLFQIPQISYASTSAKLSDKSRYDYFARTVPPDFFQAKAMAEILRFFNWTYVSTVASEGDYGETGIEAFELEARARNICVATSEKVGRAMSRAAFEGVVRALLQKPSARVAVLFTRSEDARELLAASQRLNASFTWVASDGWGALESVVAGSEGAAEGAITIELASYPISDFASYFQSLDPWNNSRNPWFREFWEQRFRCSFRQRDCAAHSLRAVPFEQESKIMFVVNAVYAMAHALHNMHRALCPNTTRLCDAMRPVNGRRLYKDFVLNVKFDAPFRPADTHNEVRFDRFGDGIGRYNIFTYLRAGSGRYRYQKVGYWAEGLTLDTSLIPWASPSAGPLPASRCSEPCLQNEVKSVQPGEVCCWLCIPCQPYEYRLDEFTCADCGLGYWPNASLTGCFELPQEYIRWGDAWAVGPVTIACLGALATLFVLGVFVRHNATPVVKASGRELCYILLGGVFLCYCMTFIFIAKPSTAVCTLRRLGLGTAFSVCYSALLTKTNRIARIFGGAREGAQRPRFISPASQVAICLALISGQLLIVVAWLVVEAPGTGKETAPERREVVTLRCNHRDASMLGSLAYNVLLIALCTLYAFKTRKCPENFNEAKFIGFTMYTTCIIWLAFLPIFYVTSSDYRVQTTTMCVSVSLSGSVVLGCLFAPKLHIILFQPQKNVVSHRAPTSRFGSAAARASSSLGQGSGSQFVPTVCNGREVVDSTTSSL
Kind of assay: mGluR2 Potentiator Screen, FLIPR, EC10-EC20 glutamate challenge. Format: cell-based.
Conditions: not given
In short, it runs like this: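 Potentiator assay in HEK cells stably expressing mGluR2 with Gα15, glutamine-depleted overnight, loaded with Fluo-4 plus probenecid and GPT/pyruvate to remove glutamate. Peak fluorescence ratio curve-fitted, with maximum set by on-plate standards.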
Regarding `Cc1cc(OC(F)(F)F)ccc1[C@H]1CCN(Cc2nc3cnccc3n2C)C[C@H]1C` (relative stereo) [compound 165], the EC50 (commonly the concentration needed to bring the measured effect to its halfway point) worked out at 0.514 µM.

Turning to `C[C@@H]1CN(Cc2nc3cnccc3n2C)CC[C@@H]1c1ccc(C(F)(F)F)cc1C(F)(F)F` (relative stereo) [compound 150], the EC50 is 0.207 µM.

As for `Cc1ccc(C)c(C2CCN(Cc3nc4ncccc4n3C)CC2)c1` [compound 61], the EC50 came to 0.29 µM.

In the case of `C[C@@H]1CN(Cc2nc3cnccc3n2C)CC[C@@H]1c1ccc(OC(F)F)cc1F` (relative stereo) [compound 199], the EC50 worked out at 0.122 µM.

Consider `C[C@@H]1CN(Cc2nc3nccc4c3n2CCC4)CC[C@@H]1c1ccc(F)c(Cl)c1` (relative stereo) [Example 128, 2-{[Cis-4-(3-chloro-4-fluorophenyl)-3-methylpiperidin-1-yl]methyl}-5,6-dihydro-4H-imidazo[4,5,1-ij]-1,7-naphthyridine], for which the concentration giving a half-maximal response (EC50) came out at 0.134 µM.

As to `Cc1cc(Cl)ccc1[C@H]1CCN(Cc2nc3cnccc3n2C)C[C@H]1C` (relative stereo) [compound 161], the EC50 came to 0.393 µM.

Consider `C[C@@H]1CN(Cc2nc3ncccc3n2C)CC[C@@H]1c1ccc(OC(F)(F)F)cc1Cl` (relative stereo) [compound 187], for which the EC50 is 0.063 µM.

For the molecule `C[C@@H]1CN(Cc2nc3cnccc3n2C)CC[C@@H]1c1ccc(Cl)cc1F` (single isomer, unassigned) [compound 140], the EC50 turned out to be 2.05 µM.

With `FC(F)(F)c1ccc(C2CCN(Cc3nc4nccc5c4n3CCC5)CC2)cc1` [Example 126, 2-({4-[4-(trifluoromethyl)phenyl]-piperidin-1-yl}methyl)-5,6-dihydro-4H-imidazo[4,5,1-ij]-1,7-naphthyridine], the EC50 amounted to 0.0626 µM.

As for `C[C@@H]1CN(Cc2nc3cnccc3n2C)CC[C@@H]1c1ccc(C(F)(F)F)c(F)c1` (relative stereo) [compound 148], the EC50 was determined as 0.0714 µM.

On to `Cn1c(CN2CCC(c3ccccc3C(F)(F)F)CC2)nc2cnccc21` [compound 48], for which the EC50 is 0.481 µM.

Take `C[C@@H]1CN(Cc2nc3cnccc3n2C)CC[C@@H]1c1ccc(C(F)(F)F)cc1Cl` (relative stereo) [compound 152]: the EC50 was found to be 0.0663 µM.

With `C[C@@H]1CN(Cc2nc3ncccc3n2C)CC[C@@H]1c1ccc(OC(F)F)cc1` (single isomer, unassigned) [compound 223], the EC50 is above 0.129 µM.

For `COc1ccc(C2CCN(Cc3nc4ncccc4n3C)CC2)cc1F` [compound 92], the EC50 is 2.8 µM.

On to `C[C@@H]1CN(Cc2nc3cnccc3n2C)CC[C@@H]1c1ccccc1F` (single isomer, unassigned) [compound 117], for which the EC50 is above 0.359 µM.

With `C[C@@H]1CN(Cc2nc3cnccc3n2C)CC[C@@H]1c1ccc(F)cc1F` (relative stereo) [compound 125], the EC50 was 10.3 µM.

In the case of `C[C@@H]1CN(Cc2nc3ncccc3n2C)CC[C@@H]1c1ccc(C(F)(F)F)cc1Cl` (relative stereo) [compound 151], the EC50 was determined as 0.03 µM.

The same assay, now with this note: HEK cells stably transfected with mGluR2 and Gα15; FLIPR (Fluo-4); potentiation of an EC10 to EC20 concentration of glutamate; Table 9.
Take `C[C@@H]1CN(Cc2nc3nccc4c3n2CCC4)CC[C@@H]1c1ccc(F)c(Cl)c1` (relative stereo) [Example 128, 2-{[Cis-4-(3-chloro-4-fluorophenyl)-3-methylpiperidin-1-yl]methyl}-5,6-dihydro-4H-imidazo[4,5,1-ij]-1,7-naphthyridine]: the EC50 is 0.134 µM.

In the case of `FC(F)(F)c1ccc(C2CCN(Cc3nc4nccc5c4n3CCC5)CC2)cc1` [Example 126, 2-({4-[4-(trifluoromethyl)phenyl]-piperidin-1-yl}methyl)-5,6-dihydro-4H-imidazo[4,5,1-ij]-1,7-naphthyridine], the EC50 amounted to 0.0626 µM.

Still in this assay, the particulars now being: mGluR2 potentiator screen, FLIPR, EC10-EC20 glutamate challenge.
Regarding `C[C@@H]1CN(Cc2nc3cnccc3n2C)CC[C@@H]1c1ccc(C(F)(F)F)c(Cl)c1` (relative stereo) [compound 235], the EC50 was determined as 0.135 µM.

With `Cn1c(CN2CCC(c3ccc(OC(F)F)cc3)CC2)nc2cnccc21` [compound 263], the EC50 was determined as 0.906 µM.
